One assay has as its target T1, CDK7 (Homo sapiens, UniProt P50613).
T1 construct: purchased Life Technologies (Adapta kinase assay service)
As to the kind of experiment: CDK7 kinase activity, Adapta kinase assay (Life Technologies). Format: biochemical. As to conditions: Adapta kinase assay at Life Technologies; 10 μM down to 0.514 nM, 3-fold serial dilutions; read-out: CDK7 Inhibition (IC50). In a few lines: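 Adapta kinase activity assay run as a commercial service; substrates not specified here. Compounds tested in 3-fold serial dilutions from 10 μM down to 0.514 nM.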

The test system of a further assay is Jurkat cells. As to the kind of experiment: Inhibition of proliferation of Jurkat cells (CellTiter-Glo, 72 hour). Type of assay: cell-based, human. As to conditions: 10 μM to 316 pM. In a few lines:
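Human T-cell leukemia Jurkat cells in RPMI 1640 with 10% FBS were exposed 72 h at 37 °C, 5% CO2 to compounds from 10 μM to 316 pM in 0.5-log steps. Anti-proliferative effect measured by CellTiter-Glo; IC50 reported in binned categories.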

For another assay, the system named is A673 cells. In words: Inhibition of proliferation of A673 cells (CyQUANT, 72 hour). As to conditions: 72 hour proliferation. Type of assay: cell-based, human. In a few lines: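 Human Ewing's sarcoma A673 cells in DMEM + 10% FBS + 1 mM sodium pyruvate, 37 °C, 5% CO2, exposed to compounds from 4 μM to 126.4 pM (0.5 log dilutions) for 72 h. Proliferation read by CyQUANT; IC50 reported as binned categories.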

The target of assay [1] is CDK7/Cyclin H/MAT1 trimeric complex (Homo sapiens, UniProt P50613). In words: CDK7 kinase assay, Caliper/LabChip EZ Reader (Biortus Biosciences). Type of assay: biochemical. As to conditions: CDK7/Cyclin H/MAT1 10 nM, ATP 2 mM, FAM-CDK7tide 2 μM, 30 min incubation, read-out: CDK7 Inhibition (IC50). The method, then: Compounds of the invention were further assayed for CDK7 activity at Biortus Biosciences (Jiangyin, Jiangsu Province, P.R. of China) using a CDK7 kinase assay developed with a Caliper/LabChip EZ Reader (Perkin Elmer, Waltham, Mass.). […] The incubation period was chosen such that the total fraction of phosphorylated peptide product produced was <20% for the uninhibited kinase.
Sequence of CDK7/Cyclin H/MAT1 trimeric complex (P50613 whole entry): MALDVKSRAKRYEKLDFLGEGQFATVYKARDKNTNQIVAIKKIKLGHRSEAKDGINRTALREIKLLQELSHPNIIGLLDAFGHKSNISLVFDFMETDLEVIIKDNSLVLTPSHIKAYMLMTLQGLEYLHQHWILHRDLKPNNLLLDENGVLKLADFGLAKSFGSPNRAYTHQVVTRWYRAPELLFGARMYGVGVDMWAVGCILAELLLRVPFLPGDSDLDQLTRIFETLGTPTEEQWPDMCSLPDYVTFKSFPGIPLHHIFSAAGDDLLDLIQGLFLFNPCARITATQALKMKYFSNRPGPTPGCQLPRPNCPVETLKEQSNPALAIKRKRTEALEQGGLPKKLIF
Sequence of CDK7/Cyclin H/MAT1 trimeric complex (P51946 whole entry partner): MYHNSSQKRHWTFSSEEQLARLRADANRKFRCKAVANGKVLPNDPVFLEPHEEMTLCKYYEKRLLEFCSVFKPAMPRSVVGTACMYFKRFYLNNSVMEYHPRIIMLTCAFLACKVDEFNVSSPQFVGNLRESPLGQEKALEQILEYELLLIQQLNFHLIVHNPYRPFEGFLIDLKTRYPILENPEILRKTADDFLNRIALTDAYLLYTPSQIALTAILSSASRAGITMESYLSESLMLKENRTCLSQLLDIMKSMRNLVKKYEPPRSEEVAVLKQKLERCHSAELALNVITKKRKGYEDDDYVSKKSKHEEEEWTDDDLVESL
Sequence of CDK7/Cyclin H/MAT1 trimeric complex (P51948 whole entry partner): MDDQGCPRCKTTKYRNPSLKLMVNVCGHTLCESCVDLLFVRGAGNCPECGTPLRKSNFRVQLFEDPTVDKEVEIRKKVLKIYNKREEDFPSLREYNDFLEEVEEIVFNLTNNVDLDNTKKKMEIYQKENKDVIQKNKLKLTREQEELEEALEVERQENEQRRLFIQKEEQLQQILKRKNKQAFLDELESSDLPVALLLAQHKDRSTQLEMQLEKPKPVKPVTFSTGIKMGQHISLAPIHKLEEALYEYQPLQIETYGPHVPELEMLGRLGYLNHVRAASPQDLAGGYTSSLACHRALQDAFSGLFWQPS

A value given as a limit tells only on which side of the number the result lay.

As usually defined, the IC50 is the midpoint of a concentration-inhibition curve.

T1 sequence (P50613 whole entry): as the sequence (P50613 whole entry) above
T1 sequence (P51946 whole entry partner): as the sequence (P51946 whole entry partner) above
T1 sequence (P51948 whole entry partner): as the sequence (P51948 whole entry partner) above

Take `C=CC(=O)N1CCC[C@@H](C(=O)N[C@H]2CCC[C@@H](Nc3ncc(Cl)c(-c4c[nH]c5ccccc45)n3)C2)C1` [Compound 174, (R)-1-acryloyl-N-((1S,3R)-3-(5-chloro-4-(1H-indol-3-yl)pyrimidin-2-ylamino)cyclohexyl)piperidine-3-carboxamide]: the IC50 at CDK7 was below 100 nM; in the assay with Jurkat cells (Homo sapiens) it was below 500 nM; with A673 cells (Homo sapiens), below 500 nM; in assay [1] it was below 100 nM.
For the compound `C=CC(=O)N1CCC2(CC1)CN([C@H]1CCC[C@@H](Nc3ncc(Cl)c(-c4c[nH]c5ccccc45)n3)C1)C(=O)O2` [Compound 186], the IC50 was below 100 nM on CDK7, 500 to 5000 nM in the assay on Jurkat cells, below 500 nM in the assay on A673 cells and below 100 nM in assay [1].
Consider `C=CC(=O)N1CCC(NC[C@@H]2CCC[C@H](Nc3ncc(Cl)c(-c4c[nH]c5ccccc45)n3)C2)CC1` [Compound 212, 1-[4-[[(1R,3S)-3-[[5-chloro-4-(1H-indol-3-yl)pyrimidin-2-yl]amino]cyclohexyl]methylamino]-1-piperidyl]prop-2-en-1-One], for which the IC50 on CDK7 is below 100 nM; with Jurkat cells (Homo sapiens), above 5000 nM; with A673 cells (Homo sapiens), below 500 nM; in assay [1], below 100 nM.
Turning to `CN(C)C/C=C/C(=O)N1CCC(C(=O)N2CC[C@@H](Nc3ncc(Cl)c(-c4c[nH]c5ccccc45)n3)C2)CC1` [Compound 213, (E)-1-[4-[(3R)-3-[[5-chloro-4-(1H-indol-3-yl)pyrimidin-2-yl]amino]pyrrolidine-1-carbonyl]-1-piperidyl]-4-(dimethylamino)but-2-en-1-One], the half-inhibitory concentration (IC50) at CDK7 is below 100 nM; in the assay with Jurkat cells (Homo sapiens), above 5000 nM; in the assay on A673 cells (Homo sapiens) it was below 500 nM; in assay [1], below 100 nM.
Turning to `CN(C)C/C=C/C(=O)N1CCC(O)(CN(C)[C@H]2CCC[C@@H](Nc3ncc(Cl)c(-c4c[nH]c5ccccc45)n3)C2)CC1` [Compound 228], the IC50 on CDK7 was below 100 nM; with Jurkat cells, 500 to 5000 nM; in the assay on A673 cells, below 500 nM; in assay [1] it was below 100 nM.
As to `C=CC(=O)N1CCN(C2CCCC(Nc3ncc(Cl)c(-c4c[nH]c5ccccc45)n3)C2)CC1C` (stereo not drawn) [Compound 229], the IC50 at CDK7 is below 100 nM; with Jurkat cells, 500 to 5000 nM; in the assay with A673 cells, below 500 nM; in assay [1], below 100 nM.
On to `CC1CN(C2CCCC(Nc3ncc(Cl)c(-c4c[nH]c5ccccc45)n3)C2)CCN1C(=O)C=CCN(C)C` (stereo not drawn) [Compound 230], for which the IC50 is below 100 nM at CDK7, 500 to 5000 nM in the assay with Jurkat cells, below 500 nM with A673 cells and below 100 nM in assay [1].
`C=CC(=O)N1CCN(C2CCCC(Nc3ncc(Cl)c(-c4c[nH]c5ccccc45)n3)C2)CC1C` (stereo not drawn) [Compound 232]: the IC50 at CDK7 was below 100 nM; in the assay on Jurkat cells, below 500 nM; in the assay with A673 cells, below 500 nM; in assay [1], below 100 nM.
For the compound `CN(C)CC=CC(=O)N1CCN(C2CCCC(Nc3ncc(Cl)c(-c4c[nH]c5ccccc45)n3)C2)CC1` (stereo not drawn) [Compound 237], the IC50 on CDK7 is below 100 nM; in the assay with Jurkat cells it was below 500 nM; in the assay on A673 cells, below 500 nM; in assay [1], below 100 nM.

The values above are taken from US10106526B2, “Inhibitors of cyclin-dependent kinase 7 (CDK7)” (SYROS PHARMACEUTICALS, INC., priority 2014, dated 2018).
